These results are taken from US10703760B2, “Morphic forms of marizomib and uses thereof” (Celgene International II Sàrl, priority 2016, dated 2020).

The structures appear in SMILES notation.

A short description of series [1]: Thermogravimetric analysis (TGA). Format: physicochemical. Here is the method: TGA data were collected on a TA Instruments Q500 TGA, equipped with a 16-position auto-sampler. The instrument was temperature calibrated using certified Alumel™ and Nickel. Typically 5-10 mg of each sample was loaded onto a pre-tared aluminum DSC pan and heated at 10° C./min from ambient temperature to 350° C. A nitrogen purge at 60 ml/min was maintained over the sample.
TG analyses were performed using a TA Instruments Q5000 IR thermogravimetric analyzer. Temperature calibration was performed using nickel and Alumel™. Each sample was placed in an aluminum pan. The sample was hermetically sealed, the lid pierced, then inserted into the TG furnace. The furnace was heated under nitrogen.

The nature of series [2]: Polymorph screen of marizomib Sample 4 (evaporation, cooling, solvent/antisolvent, slurry, grinding, heat stress, amorphous attempts). Format: physicochemical. As to the method:
For slow evaporation (SE), solutions containing marizomib Sample 4 in selected solvents were allowed to evaporate at ambient temperature from vials covered with perforated aluminum foil. For fast evaporation (FE), solutions containing marizomib Sample 4 in selected solvents were allowed to evaporate at ambient temperature from open vials. The results are given below in Table-10. For flash evaporation, […] of disordered marizomib Sample 4 were added dropwise to pre-warmed glass vials, allowing the solvent to flash evaporate immediate upon contact. Resulting solids were collected for analysis. The corresponding figure numbers are given in the right hand column.
For crash cooling (CC), concentrated solutions of marizomib Sample 4 were prepared at elevated temperature and filtered through pre-warmed 0.2-μm nylon filters into a clean vial pre-chilled in a dry ice/acetone bath. For fast cooling (FC) and slow cooling (SC), solutions containing marizomib Sample 4 in selected solvents at elevated temperatures in sealed vials. Solutions were then filtered into clean vials with 0.2-μm nylon filters and removed from the heating plate and left at ambient conditions (FC) or allowed to cool to specified temperature on the heating plate (SC). The results are given below in Table-11. As set forth below, the ratio of solvent mixtures are given by volume. Temperature and time are approximate. […]

On to `C[C@@]12OC(=O)[C@]1([C@@H](O)[C@@H]1C=CCCC1)NC(=O)[C@@H]2CCCl` [Sample 4, marizomib], for which the “TGA weight loss prior to decomposition” value in series [1] is “negligible weight loss prior to decomp”. In series [1] (Sample 4 prior to testing), the “TGA (onset, decomp.)” value was 168 °C (onset, decomp.). For the same compound, the “TGA: decomposition after” value in series [1] (as stated in cocrystal discussion) was “approximately 150 °C”.
On to `C[C@@]12OC(=O)[C@]1([C@@H](O)[C@@H]1C=CCCC1)NC(=O)[C@@H]2CCCl` [marizomib], for which the “weight loss (TGA)” value in series [1] (solids from 2-pyrrolidone (1:1) cocrystal experiment, from 27.1° C. to 92.0° C.) was 5.0%; in series [1] (solids from Melamine (1:1) cocrystal experiment, from 30.2° C. to 104.0° C.), 10.3%; in series [1] (solids from Melamine (1:1) cocrystal experiment, from 30.2° C. to 146.0° C.), “C. 21.1%”. Besides, in series [2], the “Morphic form observed after exposure to solvents and anti-solvents” value is reported as “only morphic Form I was observed”.
